“And” between values parts separate entries of the source, which are not always exact repeats. Identical values can stand only once.
What was measured:
[1] = tested on: BTK; conditions: no reference given; cited from earlier work
[2] = Plasma pharmacokinetics of acalabrutinib and ACP‐5862; format: in vivo, Japanese patients; conditions: for M/P ratio (metabolite to parent), AUC / M/P ratio (metabolite to parent), AUC0–12 / M/P ratio (metabolite to parent), AUC0–t / M/P ratio (metabolite to parent), Cmax: part 1
[3] = multiple dose 100 mg BID, day 8, part 1
[4] = multiple dose 100 mg BID, day 8, part 1, fasting
[5] = single dose 100 mg acalabrutinib, part 1, fasting

RAC (extent of accumulation on multiple dosing), Amean ± SD [2, 3]: 2.72 and 2.722 ± 2.826 | TC (time dependency of pharmacokinetics), Amean ± SD [2, 3]: 1.444 ± 0.8136 | AUC0–12, Gmean (CV) [2, 4]: 1987 (8%) ng∙h/mL | AUC0–t, Gmean (CV) [2, 4]: 1985 (8%) ng∙h/mL | AUC (zero to infinity), Gmean (CV) [2, 4]: 2099 (7%) ng∙h/mL | Cmax, Gmean (CV) [2, 4]: 629.7 (27%) ng/mL | t1/2, Amean ± SD [2, 4]: 3.216 ± 0.3938 h | tmax, median (min, max) [2, 4]: 0.940 (0.750, 1.080) h | M/P ratio (metabolite to parent), AUC ([2]; multiple dose): 1.73 | M/P ratio (metabolite to parent), AUC0–12 ([2]; multiple dose): 1.64 | M/P ratio (metabolite to parent), AUC0–t ([2]; multiple dose): 1.65 | M/P ratio (metabolite to parent), Cmax ([2]; multiple dose): 0.56 | AUC0–12, Gmean (CV) [2, 5]: 1092 (124%) ng∙h/mL | AUC0–t, Gmean (CV) [2, 5]: 1306 (94%) ng∙h/mL | AUC (zero to infinity), Gmean (CV) [2, 5]: 1557 (60%) ng∙h/mL | Cmax, Gmean (CV) [2, 5]: 316.5 (260%) ng/mL | t1/2, Amean ± SD [2, 5]: 10.18 ± 7.986 h | tmax, median (min, max) [2, 5]: 0.965 (0.900, 4.000) h | M/P ratio (metabolite to parent), AUC ([2]; single dose): 1.40 | M/P ratio (metabolite to parent), AUC0–12 ([2]; single dose): 1.23 | M/P ratio (metabolite to parent), AUC0–t ([2]; single dose): 1.36 | M/P ratio (metabolite to parent), Cmax ([2]; single dose): 0.53
SMILES: CC#CC(=O)NCCCC(=O)c1nc(-c2ccc(C(=O)Nc3ccccn3)cc2)c2c(N)nccn12 [ACP‐5862]
Potency for BTK inactivation relative to the parent agent acalabrutinib [1]: approximately 50%

— paper PMC8177795 (Cancer Science, 2021)
